# Test results reported in patent US8563551B2, “Method for preventing or treating a disease related to the glucocorticoid receptor” (Santen Pharmaceutical Co., Ltd., priority 2006, dated 2013).
# Target: T1, Recombinant human GR (Homo sapiens, UniProt P04150)
# T1 construct: purchased Invitrogen P2816
# T1 sequence (P04150 1-777): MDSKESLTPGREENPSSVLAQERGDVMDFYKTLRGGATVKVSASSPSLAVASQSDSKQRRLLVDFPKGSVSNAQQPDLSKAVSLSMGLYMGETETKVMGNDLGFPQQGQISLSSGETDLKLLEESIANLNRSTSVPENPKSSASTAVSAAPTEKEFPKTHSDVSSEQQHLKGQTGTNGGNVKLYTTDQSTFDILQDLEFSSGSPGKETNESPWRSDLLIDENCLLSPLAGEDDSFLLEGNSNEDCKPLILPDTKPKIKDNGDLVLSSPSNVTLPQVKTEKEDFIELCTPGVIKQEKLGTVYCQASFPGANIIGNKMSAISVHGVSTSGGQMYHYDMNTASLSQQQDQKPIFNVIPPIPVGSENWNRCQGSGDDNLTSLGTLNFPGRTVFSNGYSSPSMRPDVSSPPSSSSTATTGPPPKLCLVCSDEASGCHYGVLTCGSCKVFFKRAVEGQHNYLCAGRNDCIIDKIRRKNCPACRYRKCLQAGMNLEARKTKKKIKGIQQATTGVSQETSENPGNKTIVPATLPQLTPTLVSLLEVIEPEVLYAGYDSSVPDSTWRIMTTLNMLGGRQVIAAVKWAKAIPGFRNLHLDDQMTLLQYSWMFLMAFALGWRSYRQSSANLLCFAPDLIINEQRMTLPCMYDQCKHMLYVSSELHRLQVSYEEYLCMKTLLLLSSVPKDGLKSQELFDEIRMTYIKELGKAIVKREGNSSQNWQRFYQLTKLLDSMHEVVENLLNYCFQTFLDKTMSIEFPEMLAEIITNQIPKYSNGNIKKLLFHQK
# Assay: GR competitor assay (receptor competitor assay by fluorescence polarization, Invitrogen kit P2816)
# Conditions: 20 μM test compound solution (10 μL per well plus 5 μL 4×GS1 and 5 μL 4×GR); relative to 2 mM dexamethasone positive control; ratios of 100% or more are indicated by 100%; read-out: GR Binding ratio (%)
# Protocol: In order to evaluate a binding activity to GR, a receptor competitor assay was carried out by a fluorescence polarization method. In the assay, a GR competitor assay kit (manufactured by Invitrogen, cat No. P2816) was used, and a procedure was carried out according to the protocol attached to the kit. Hereinafter, the specific method will be described.
# GR screening buffer: A buffer containing 10 mM potassium phosphate (pH 7.4), 20 mM sodium molybdate (Na2MoO4), 0.1 mM ethylene diamine tetraacetic acid (EDTA), 5 mM dithiothreitol (DTT), 0.1 mM stabilizing peptide and 2% dimethylsulfoxide was prepared.
# 4×GS1 solution: Fluormone™ GS1, which is a fluorescent glucocorticoid ligand, was diluted with GR screening buffer, whereby a 4 nM solution was prepared.
# 4×GR solution: Recombinant human GR was diluted with GR screening buffer, whereby a 16 nM solution was prepared.
# After a test compound was dissolved in dimethylsulfoxide, the resulting solution was diluted with GR screening buffer, whereby a 20 μM test compound solution was prepared.
# 1) The test compound solution was added in an amount of 10 μL into each well of a 384-well plate, and then, 4×GS1 solution and 4×GR solution were added in an amount of 5 μL into each well, respectively.
# 2) The plate was incubated in a dark place at room temperature for 2 to 4 hours.
# 3) By using a multimode plate reader, Analyst™ HT (manufactured by LJL Biosystems), fluorescence polarization of each well was measured. As the blank, a well containing GR screening buffer in place of the test compound and 4×GS1 solution was used.
# 4) The same procedure as that in the above 1) to 3) was carried out except that GR screening buffer was used in place of the test compound solution, and the obtained result was taken as the negative control.
# 5) The same procedure as that in the above 1) to 3) was carried out except that 2 mM dexamethasone was used in place of the test compound solution, and the obtained result was taken as the positive control.
# A GR binding ratio (%) was calculated from the following equation. GR binding ratio(%)=100×[1−(fluorescence polarization of test compound solution−fluorescence polarization of positive control solution)/(fluorescence polarization of negative control solution fluorescence polarization of positive control solution)] (Test Results and Discussion)
row,Structure (SMILES),inhibition at 20 µM (stock)
1,"COc1cc(OC(=O)c2cccnc2)ccc1-c1ccc2c(c1COC(=O)c1ccc(Br)s1)C(C)=CC(C)(C)N2 [Compound 1-37, 5-(5-Bromothiophen-2-ylcarbonyloxymethyl)-6-[2-methoxy-4-(pyridin-3-ylcarbonyloxy)phenyl]-2,2,4-trimethyl-1,2-dihydroquinoline]",100%
2,"COc1ccc(C(=O)OCc2c(-c3ccc(OC(=O)c4ccco4)cc3OC)ccc3c2C(C)=CC(C)(C)N3)cc1 [Compound 1-36, 6-[4-(Furan-2-ylcarbonyloxy)-2-methoxyphenyl]-5-(4-methoxybenzoyloxymethyl)-2,2,4-trimethyl-1,2-dihydroquinoline]",100%
3,"CCS(=O)(=O)Oc1ccc(-c2ccc3c(c2COC(=O)c2ccc(C)s2)C(C)=CC(C)(C)N3)c(OC)c1 [Compound 2-7, 6-(4-Ethylsulfonyloxy-2-methoxyphenyl)-5-(5-methylthiophen-2-ylcarbonyloxymethyl)-2,2,4-trimethyl-1,2-dihydroquinoline]",100%
4,"COc1cc(OC(=O)c2cccc(Cl)c2)ccc1-c1ccc2c(c1COC(=O)c1ccc(C)s1)C(C)=CC(C)(C)N2 [Compound 1-16, 6-[4-(3-Chlorobenzoyloxy)-2-methoxyphenyl]-5-(5-methylthiophen-2-ylcarbonyloxymethyl)-2,2,4-trimethyl-1,2-dihydroquinoline]",85%
5,"COc1cc(OC(=O)c2ccncc2)ccc1-c1ccc2c(c1COC(=O)c1ccc(C)s1)C(C)=CC(C)(C)N2 [Compound 1-33, 6-[2-Methoxy-4-(pyridin-4-ylcarbonyloxy)phenyl]-5-(5-methylthiophen-2-ylcarbonyloxymethyl)-2,2,4-trimethyl-1,2-dihydroquinoline]",96%
6,"COc1cc(OS(=O)(=O)CCC(F)(F)F)ccc1-c1ccc2c(c1COC(=O)c1ccc(C)s1)C(C)=CC(C)(C)N2 [Compound 2-1, 6-[2-Methoxy-4-(3,3,3-trifluoropropylsulfonyloxy)phenyl]-5-(5-methylthiophen-2-ylcarbonyloxymethyl)-2,2,4-trimethyl-1,2-dihydroquinoline]",97%
7,"COc1cc(OC(=O)c2ccccc2F)ccc1-c1ccc2c(c1COC(=O)c1ccc(C)s1)C(C)=CC(C)(C)N2 [Compound 1-20, 6-[4-(2-Fluorobenzoyloxy)-2-methoxyphenyl]-5-(5-methylthiophen-2-ylcarbonyloxymethyl)-2,2,4-trimethyl-1,2-dihydroquinoline]",90%
8,"COc1cc(OC(=O)N2CCOCC2)ccc1-c1ccc2c(c1COC(=O)c1ccc(C)s1)C(C)=CC(C)(C)N2 [Compound 4-3, 6-[2-Methoxy-4-(morpholin-4-ylcarbonyloxy)phenyl]-5-(5-methylthiophen-2-ylcarbonyloxymethyl)-2,2,4-trimethyl-1,2-dihydroquinoline]",94%
9,"COc1cc(OC(=O)c2ccccc2C)ccc1-c1ccc2c(c1COC(=O)c1ccc(C)s1)C(C)=CC(C)(C)N2 [Compound 1-19, 6-[2-Methoxy-4-(2-methylbenzoyloxy)phenyl]-5-(5-methylthiophen-2-ylcarbonyloxymethyl)-2,2,4-trimethyl-1,2-dihydroquinoline]",89%
10,"COc1ccccc1C(=O)Oc1ccc(-c2ccc3c(c2COC(=O)c2ccc(C)s2)C(C)=CC(C)(C)N3)c(OC)c1 [Compound 1-12, 6-[2-Methoxy-4-(2-methoxybenzoyloxy)phenyl]-5-(5-methylthiophen-2-ylcarbonyloxymethyl)-2,2,4-trimethyl-1,2-dihydroquinoline]",93%
11,"COc1cc(OC(=O)c2cccnc2)ccc1-c1ccc2c(c1COC(=O)c1ccc(C)s1)C(C)=CC(C)(C)N2 [Compound 1-13, 6-[2-Methoxy-4-(pyridin-3-ylcarbonyloxy)phenyl]-5-(5-methylthiophen-2-ylcarbonyloxymethyl)-2,2,4-trimethyl-1,2-dihydroquinoline]",96%
12,"CCCCS(=O)(=O)Oc1ccc(-c2ccc3c(c2COC(=O)c2ccc(C)s2)C(C)=CC(C)(C)N3)c(OC)c1 [Compound 2-8, 6-(4-Butylsulfonyloxy-2-methoxyphenyl)-5-(5-methylthiophen-2-ylcarbonyloxymethyl)-2,2,4-trimethyl-1,2-dihydroquinoline]",100%
13,"COc1cc(OC(=O)c2cscn2)ccc1-c1ccc2c(c1COC(=O)c1ccc(C)s1)C(C)=CC(C)(C)N2 [Compound 1-32, 6-[2-Methoxy-4-(thiazol-4-ylcarbonyloxy)phenyl]-5-(5-methylthiophen-2-ylcarbonyloxymethyl)-2,2,4-trimethyl-1,2-dihydroquinoline]",99%
14,"COc1cc(OC(=O)c2ccccc2Cl)ccc1-c1ccc2c(c1COC(=O)c1ccc(C)s1)C(C)=CC(C)(C)N2 [Compound 1-15, 6-[4-(2-Chlorobenzoyloxy)-2-methoxyphenyl]-5-(5-methylthiophen-2-ylcarbonyloxymethyl)-2,2,4-trimethyl-1,2-dihydroquinoline]",91%
15,"COc1cc(OC(=O)c2cccnc2)ccc1-c1ccc2c(c1COC(=O)c1ccc(C)cc1)C(C)=CC(C)(C)N2 [Compound 1-8, 5-(4-Methylbenzoyloxymethyl)-6-[2-methoxy-4-(pyridin-3-ylcarbonyloxy)phenyl]-2,2,4-trimethyl-1,2-dihydroquinoline]",100%
16,"COc1cc(OC(=O)c2ccccc2OC(C)=O)ccc1-c1ccc2c(c1COC(=O)c1ccc(C)s1)C(C)=CC(C)(C)N2 [Compound 1-44, 6-[4-(2-Acetoxybenzoyloxy)-2-methoxyphenyl]-5-(5-methylthiophen-2-ylcarbonyloxymethyl)-2,2,4-trimethyl-1,2-dihydroquinoline]",96%
17,"COc1cc(OC(=O)c2ccco2)ccc1-c1ccc2c(c1COC(=O)c1ccc(C)s1)C(C)=CC(C)(C)N2 [Compound 1-14, 6-[4-(Furan-2-ylcarbonyloxy)-2-methoxyphenyl]-5-(5-methylthiophen-2-ylcarbonyloxymethyl)-2,2,4-trimethyl-1,2-dihydroquinoline]",96%
18,"COc1cc(OC(=O)c2occc2C)ccc1-c1ccc2c(c1COC(=O)c1ccc(C)s1)C(C)=CC(C)(C)N2 [Compound 1-50, 6-[2-Methoxy-4-(3-methylfuran-2-ylcarbonyloxy)phenyl]-5-(5-methylthiophen-2-ylcarbonyloxymethyl)-2,2,4-trimethyl-1,2-dihydroquinoline]",90%
19,"COc1cc(OC(=O)c2sccc2Cl)ccc1-c1ccc2c(c1COC(=O)c1ccc(C)s1)C(C)=CC(C)(C)N2 [Compound 1-31, 6-[4-(3-Chlorothiophen-2-ylcarbonyloxy)-2-methoxyphenyl]-5-(5-methylthiophen-2-ylcarbonyloxymethyl)-2,2,4-trimethyl-1,2-dihydroquinoline]",88%
